Results on one compound are retold here after patent US10883083B2, “Tissue-engineered three-dimensional model for tumor analysis” (The Trustees of Columbia University in the City of New York, priority 2013, dated 2021).

The test has as its system ES cells (SK-N-MC) in Col 1-HA scaffold. Briefly: Blebbistatin treatment of bioengineered tumor: cell morphology and exosome size (NTA). Conditions: blebbistatin-treated vs untreated controls, 3D setting. The format is cell-based, human. The protocol:
To seed 3D Collagen 1-HA scaffolds, single-cell suspension of SK-N-MC cells was adjusted to the cell concentration of 1×10^6 cells/mL in a 50 ml Falcon tube. A total of 15 scaffolds were added to 30 mL of cell suspension, and the Falcon was set onto a rotary platform for 3 hours at 37° C./5% CO2. Cell seeded scaffolds were then transferred to non-treated wells in 12-multiwell plates (Nunc) and cultured in 2 mL of medium at 37° C./5% CO2. Cell numbers and were determined by Quant-iT PicoGreen dsDNA Assay Kit (Life technologies) according to the manufacturer's instructions. Exosome isolation and size analysis: Cells cultured in monolayers, aggregates and 3D scaffolds were washed with PBS twice and cultured in EMEM supplemented with 10% (v/v) Exosome-depleted FBS (SBI) and 1% penicillin/streptomycin for 12 h. The supernatants were collected and exosomes were isolated from cell culture media using the total exosome isolation kit (Invitrogen), according to the manufacturer's protocol. Exosomes from plasma samples were also isolated using the total exosome isolation kit (Invitrogen). The size distributions of exosomes were determined by Nanoparticle Tracking Analysis (NTA) using the Nanosight machine. To probe a possible mechanism underlying the observed effects of the tumor environment on exosome size, we modified the tension forces within the cells.

In the case of `Cc1ccc2c(c1)C(=O)C1(O)CCN(c3ccccc3)C1=N2` (centres unmarked) [Blebbistatin], the “Cell morphology / cell aggregates” value is reported as “partial disassembly of cell aggregates” and the Exosome size distribution result is listed as “shift of the exosome size distribution curve to higher values”.
